IC50 data for 19 compounds are collected here from patent US9765056B2, “Indole and pyrrole compounds, a process for their preparation and pharmaceutical compositions containing them” (LES LABORATOIRES SERVIER, priority 2013, dated 2017).

In assay [1] the target is Bcl-2 protein (histag-Bcl-2, UniProtKB P10415) (Homo sapiens (Human), UniProt P10415). Nature of the assay: Inhibition of Bcl-2 by the fluorescence polarisation technique. In kind it is binding. To be noted: fluorescence polarisation test; method A, or method B where underlined (underlining not visible); read-out: IC50 (nM) Bcl-2 FP. The text has this:
Inhibition of Bcl-2 by the fluorescence polarisation technique

Assay [2] concerns RS4;11 leukaemia tumour line. Nature of the assay: In vitro cytotoxicity, Microculture Tetrazolium Assay (MTT). It counts as cell-based. Particulars: Homo sapiens; RS4;11 cells, 48 hours exposure. The method, then:
The cytotoxicity studies were carried out on the RS4;11 leukaemia tumour line.
The cells are distributed onto microplates and exposed to the test compounds for 48 hours. The cell viability is then quantified by a colorimetric assay, the Microculture Tetrazolium Assay (Cancer Res., 1987, 47, 939-942).

SMILES strings stand for the structures. Structures can show the parent of a compound that is named as a salt.

Sequence of Bcl-2 protein (P10415 whole entry): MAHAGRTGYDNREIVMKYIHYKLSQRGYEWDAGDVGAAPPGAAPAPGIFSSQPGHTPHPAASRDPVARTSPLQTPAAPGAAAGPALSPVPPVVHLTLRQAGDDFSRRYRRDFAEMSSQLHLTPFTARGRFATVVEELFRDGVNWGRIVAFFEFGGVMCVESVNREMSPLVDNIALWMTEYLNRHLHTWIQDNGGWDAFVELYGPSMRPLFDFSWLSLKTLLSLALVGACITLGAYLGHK

For orientation: IC50 means the concentration that gives 50% inhibition. On to `Cc1cc(C(=O)N(c2ccc(O)cc2)c2ccc3c(ccn3C)c2)cn1-c1cc(Cl)ccc1C(=O)N1Cc2ccccc2C[C@H]1CN(C)C` [Example 95, 1-(5-Chloro-2-{[(3S)-3-[(dimethylamino)methyl]-3,4-dihydroisoquinolin-2(1H)-yl]carbonyl}phenyl)-N-(4-hydroxyphenyl)-5-methyl-N-(1-methyl-1H-indol-5-yl)-1H-pyrrole-3-carboxamide hydrochloride], for which the half-maximal inhibitory concentration (IC50) stood at 6.4 nM in assay [1] and 264 nM in assay [2].
The corresponding values for `CCCCN(CCCC)C(=O)c1cn(-c2ccc(NC(=O)CSc3ccccc3)cc2C(=O)N2Cc3ccccc3C[C@H]2CN2CCN(C)CC2)c2ccccc12` [Example 199, N,N-Dibutyl-1-{2-[(3S)-3-[(4-methylpiperazin-1-yl)methyl]-1,2,3,4-tetrahydroisoquinoline-2-carbonyl]-4-[2-(phenylsulphanyl)acetamido]phenyl}-1H-indole-3-carboxamide] are 57.7 nM and 2360 nM.
Taken in the same sequence, the figures for `NC[C@@H]1Cc2ccccc2CN1C(=O)c1ccccc1-n1cc(C(=O)N(c2ccccc2)c2ccc(O)cc2)c2ccccc21` [Example 131, 1-{2-[(3S)-3-(Aminomethyl)-1,2,3,4-tetrahydroisoquinoline-2-carbonyl}phenyl]-N-(4-hydroxyphenyl)-N-phenyl-1H-indole-3-carboxamide] were 18.9 nM and 469 nM.
The corresponding values for `COc1ccc(N(C(=O)c2cn(-c3cc4c(cc3C(=O)N3Cc5ccccc5C[C@H]3CN3CCN(C)CC3)OCO4)c3ccccc23)c2ccc(O)cc2)cc1` [Example 49, N-(4-Hydroxyphenyl)-N-(4-methoxyphenyl)-1-(6-{[(3S)-3-[(4-methylpiperazin-1-yl)methyl]-3,4-dihydroisoquinolin-2(1H)-yl]carbonyl}-1,3-benzodioxol-5-yl)-1H-indole-3-carboxamide] are 13.1 nM and 136 nM.
Consider `Cc1cc(C(=O)N(c2ccccc2)c2ccc3[nH]ccc3c2)cn1-c1ccccc1C(=O)N1Cc2ccccc2C[C@H]1CN(C)C` [Example 10, 1-(2-{[(3S)-3-[(Dimethylamino)methyl]-3,4-dihydroisoquinolin-2(1H)-yl]carbonyl}phenyl)-N-(1H-indol-5-yl)-5-methyl-N-phenyl-1H-pyrrole-3-carboxamide], for which the IC50 in assay [1] worked out at 146 nM; in assay [2], 2220 nM.
The corresponding values for `Cc1cc(C(=O)N(c2ccc(O)cc2)c2ccc3[nH]ccc3c2)cn1-c1cc(Br)ccc1C(=O)N1Cc2ccccc2C[C@H]1CN1CCN(C2CCCC2)CC1` [Example 80, 1-(5-Bromo-2-{[(3S)-3-[(4-cyclopentylpiperazin-1-yl)methyl]-3,4-dihydroisoquinolin-2(1H)-yl]carbonyl}phenyl)-N-(4-hydroxyphenyl)-N-(1H-indol-5-yl)-5-methyl-1H-pyrrole-3-carboxamide] are 6.8 nM and 120 nM.
`Cc1ccc(N(C(=O)c2cn(-c3cc4c(cc3C(=O)N3Cc5ccccc5C[C@H]3CN3CCN(C)CC3)OCO4)c3ccccc23)c2ccc(O)cc2)cc1F` [Example 52, N-(3-Fluoro-4-methylphenyl)-N-(4-hydroxyphenyl)-1-(6-{[(3S)-3-[(4-methylpiperazin-1-yl)methyl]-3,4-dihydroisoquinolin-2(1H)-yl]carbonyl}-1,3-benzodioxol-5-yl)-1H-indole-3-carboxamide]: the half-maximal inhibitory concentration (IC50) in assay [1] amounted to 5.4 nM; in assay [2], 77.3 nM.
The corresponding values for `O=C(c1cn(-c2cc3c(cc2C(=O)N2Cc4ccccc4C[C@H]2CN2CCOCC2)OCO3)c2c1CCCC2)N(c1ccccc1)c1ccc(O)cc1` [Example 113, N-(4-Hydroxyphenyl)-1-(6-{[(3S)-3-(morpholin-4-ylmethyl)-3,4-dihydroisoquinolin-2(1H)-yl]carbonyl}-1,3-benzodioxol-5-yl)-N-phenyl-4,5,6,7-tetrahydro-1H-indole-3-carboxamide hydrochloride] are 19.2 nM and 203 nM.
Take `O=C(c1cn(-c2cc3c(cc2C(=O)N2Cc4ccccc4C[C@H]2CN2CCCCC2)OCO3)c2ccccc12)N(c1ccccc1)c1ccc(O)cc1` [Example 174, N-(4-Hydroxyphenyl)-N-phenyl-1-{6-[(3S)-3-(piperidin-1-ylmethyl)-1,2,3,4-tetrahydroisoquinoline-2-carbonyl]-2H-1,3-benzodioxol-5-yl}-1H-indole-3-carboxamide]: the results for the half-maximal inhibitory concentration (IC50) in assay [1] and in assay [2] were 41.2 nM and 402 nM, respectively.
The corresponding values for `CN1CCN(C[C@@H]2Cc3ccccc3CN2C(=O)c2cc3c(cc2-n2cc(C(=O)N(c4ccc(O)cc4)c4ccc(F)c(Cl)c4)c4ccccc42)OCO3)CC1` [Example 58, N-(3-Chloro-4-fluorophenyl)-N-(4-hydroxyphenyl)-1-(6-{[(3S)-3-[(4-methylpiperazin-1-yl)methyl]-3,4-dihydroisoquinolin-2(1H)-yl]carbonyl}-1,3-benzodioxol-5-yl)-1H-indole-3-carboxamide hydrochloride] are 20.5 nM and 190 nM.
Turning to `Cc1cc(C(=O)N(c2ccc(O)cc2)c2cccc(N3CCN(C)CC3)c2)cn1-c1cc2c(cc1C(=O)N1Cc3ccccc3C[C@H]1C)OCO2` [Example 112, N-(4-Hydroxyphenyl)-5-methyl-1-(6-{[(3R)-3-methyl-3,4-dihydroisoquinolin-2(1H)-yl]carbonyl}-1,3-benzodioxol-5-yl)-N-[3-(4-methylpiperazin-1-yl)phenyl]-1H-pyrrole-3-carboxamide hydrochloride], the half-inhibitory concentration (IC50) was found to be 11.8 nM in assay [1] and 281 nM in assay [2].
Regarding `CN1CCN(C[C@@H]2Cc3ccccc3CN2C(=O)c2ccc(Br)cc2-n2cc(C(=O)N(c3ccc(O)cc3)c3ccc4[nH]ccc4c3)c3ccccc32)CC1` [Example 48, 1-(5-Bromo-2-{[(3S)-3-[(4-methylpiperazin-1-yl)methyl]-3,4-dihydroisoquinolin-2(1H)-yl]carbonyl}phenyl)-N-(4-hydroxyphenyl)-N-(1H-indol-5-yl)-1H-indole-3-carboxamide], the IC50 in assay [1] was 10.5 nM; in assay [2], 93.9 nM.
Taken in the same sequence, the figures for `Cc1cc(C(=O)N(c2ccc(O)cc2)c2ccc3c(ccn3C)c2)cn1-c1cc(Br)ccc1C(=O)N1Cc2ccccc2C[C@H]1CN1CCN(C)CC1` [Example 70, 1-(5-Bromo-2-{[(3S)-3-[(4-methylpiperazin-1-yl)methyl]-3,4-dihydroisoquinolin-2(1H)-yl]carbonyl}phenyl)-N-(4-hydroxyphenyl)-5-methyl-N-(1-methyl-1H-indol-5-yl)-1H-pyrrole-3-carboxamide hydrochloride] were 2.9 nM and 63.8 nM.
The corresponding values for `CN1CCN(C[C@@H]2Cc3ccccc3CN2C(=O)c2cc3c(cc2-n2cc(C(=O)N(c4ccc(O)cc4)c4ccc5c(c4)CCN5)c4ccccc42)OCO3)CC1` [Example 47, N-(2,3-Dihydro-1H-indol-5-yl)-N-(4-hydroxyphenyl)-1-(6-{[(3S)-3-[(4-methylpiperazin-1-yl)methyl]-3,4-dihydroisoquinolin-2(1H)-yl]carbonyl}-1,3-benzodioxol-5-yl)-1H-indole-3-carboxamide] are 9.2 nM and 50.3 nM.
Taken in the same sequence, the figures for `CN1CCN(C[C@@H]2Cc3ccccc3CN2C(=O)c2cc3c(cc2-n2cc(C(=O)N(c4ccc(O)c(Cl)c4)c4ccc5[nH]ccc5c4)c4ccccc42)OCO3)CC1` [Example 82, N-(3-Chloro-4-hydroxyphenyl)-N-(1H-indol-5-yl)-1-(6-{[(3S)-3-[(4-methylpiperazin-1-yl)methyl]-3,4-dihydroisoquinolin-2(1H)-yl]carbonyl}-1,3-benzodioxol-5-yl)-1H-indole-3-carboxamide hydrochloride] were 17.6 nM and 373 nM.
For the compound `CN1CCN(C[C@@H]2Cc3ccccc3CN2C(=O)c2ccc(Br)cc2-n2cc(C(=O)N(c3ccc(O)cc3)c3ccc(Cl)cc3)c3ccccc32)CC1` [Example 59, 1-(5-Bromo-2-{[(3S)-3-[(4-methylpiperazin-1-yl)methyl]-3,4-dihydroisoquinolin-2(1H)-yl]carbonyl}phenyl)-N-(4-chlorophenyl)-N-(4-hydroxyphenyl)-1H-indole-3-carboxamide], the IC50 was determined as 19.2 nM in assay [1] and 206 nM in assay [2].
The corresponding values for `CN1CCN(C[C@@H]2Cc3ccccc3CN2C(=O)c2ccc(Cl)cc2-n2cc(C(=O)N(c3ccccc3)c3ccc(O)cc3)c3ccccc32)CC1` [Example 159, 1-{5-Chloro-2-[(3S)-3-[(4-methylpiperazin-1-yl)methyl]-1,2,3,4-tetrahydroisoquinoline-2-carbonyl]phenyl}-N-(4-hydroxyphenyl)-N-phenyl-1H-indole-3-carboxamide] are 10.2 nM and 191 nM.
Consider `COc1ccc(C(=O)N2Cc3ccccc3C[C@H]2CN2CCCCC2)c(-n2cc(C(=O)N(c3ccccc3)c3ccc(O)cc3)c3ccccc32)c1` [Example 169, N-(4-Hydroxyphenyl)-1-{5-methoxy-2-[(3S)-3-(piperidin-1-ylmethyl)-1,2,3,4-tetrahydroisoquinoline-2-carbonyl]phenyl}-N-phenyl-1H-indole-3-carboxamide hydrochloride], for which the half-maximal inhibitory concentration (IC50) in assay [1] worked out at 108 nM; in assay [2], 854 nM.
Taken in the same sequence, the figures for `NC[C@@H]1Cc2ccccc2CN1C(=O)c1cc(NC(=O)COc2ccccc2)ccc1-n1nc(C(=O)N(c2ccccc2)c2ccccc2)c2ccccc21` [Example 144, 1-{2-[(3S)-3-(Aminomethyl)-1,2,3,4-tetrahydroisoquinoline-2-carbonyl]-4-(2-phenoxyacetamido)phenyl}-N,N-diphenyl-1H-indazole-3-carboxamide] were 35 nM and 1380 nM.
